Experimental findings from ChEMBL document CHEMBL1201862, “PubChem BioAssay data set” (2004) are described below.

What is called GI50 is the concentration that inhibits growth by half.

Some test systems named below: A549; HCC 2998; K562; KM-20L2; LOX IMVI; NCI-H23; OVCAR-4; RPMI-8226; SNB-75; SR; SW-620; TK-10; U-251; A498; HOP-62; NCI-H522; BT-549; NCI/ADR-RES; PC-3; T47D.
Common to all, as to assay: DTP human tumour cell line panel, 48 h

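Each compound was tested at five concentrations against cells in 96-well plates for 48 hours. Abbreviation: GI50, concentration required for 50% inhibition of growth.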 The source made the active and inactive calls. Rule as the data show it: active = GI50 up to about 1.1 µM and inactive = higher.

With `O=C(O)C(Cl)(Cl)Cl`, the GI50 with A549, with HCC 2998, in the experiment on K562, in the experiment with KM-20L2, with LOX IMVI and with NCI-H23 was > 100 µM (inactive) each time. For the same compound, the GI50 in the experiment with OVCAR-4 is > 100 µM (inactive); in the experiment on RPMI-8226 it was > 100 µM (inactive); with SNB-75 it was 63.1 µM (inactive); in the experiment on SR it was > 100 µM (inactive); in the experiment on SW-620, > 100 µM (inactive); with TK-10 it was > 100 µM (inactive). Further, the GI50 with U-251 was > 100 µM (inactive).

For the compound `O=c1cccccc1NCCCCCCNc1cccccc1=O`, the GI50 with A498, in the experiment on A549, with HCC 2998, in the experiment with HOP-62, with K562 and with KM-20L2 was > 100 µM (inactive) throughout. Further, the GI50 in the experiment with LOX IMVI was > 100 µM (inactive); in the experiment with NCI-H23, > 100 µM (inactive); in the experiment with NCI-H522 it was > 100 µM (inactive); in the experiment on OVCAR-4, > 100 µM (inactive); in the experiment on RPMI-8226, > 100 µM (inactive); in the experiment on SNB-75, 57.7 µM (inactive). Moreover, the GI50 in the experiment on SW-620, with TK-10 and with U-251 was > 100 µM (inactive) throughout.

For the compound `CC1S(=O)(=O)OCCOS1(=O)=O`, the GI50 with A498 is > 100 µM (inactive); in the experiment with A549, > 95.5 µM (inactive); with HCC 2998, > 100 µM (inactive); in the experiment with HOP-62, > 100 µM (inactive); in the experiment on K562, > 100 µM (inactive); with KM-20L2, > 100 µM (inactive). The GI50 with LOX IMVI was 52.2 µM (inactive); in the experiment with NCI-H23, > 76.9 µM (inactive); with NCI-H522, > 78 µM (inactive); in the experiment with OVCAR-4, > 100 µM (inactive); in the experiment with RPMI-8226, > 100 µM (inactive); in the experiment with SNB-75 it was 67.9 µM (inactive). The GI50 in the experiment on SW-620 is > 100 µM (inactive); in the experiment with TK-10, > 100 µM (inactive); in the experiment on U-251, 28.8 µM (inactive).

Consider `CCOC(=O)C1=C(NC)OCC1=O`, for which the GI50 in the experiment on A498, in the experiment on A549, in the experiment with HCC 2998, with HOP-62, in the experiment on K562 and in the experiment on KM-20L2 was > 100 µM (inactive) throughout. Besides, the GI50 in the experiment with LOX IMVI, in the experiment with NCI-H23, in the experiment with NCI-H522, with OVCAR-4, in the experiment with RPMI-8226 and with SNB-75 was > 100 µM (inactive) in each case. Further, the GI50 in the experiment on SW-620, with TK-10 and in the experiment on U-251 was > 100 µM (inactive) in each case.

`O=C1c2ccccc2CCCCCCCCCCC12OCCCO2`: the GI50 was 32.1 µM (inactive) in the experiment on A498; 28.8 µM (inactive) in the experiment on A549; 25.4 µM (inactive) in the experiment with HCC 2998; 49.9 µM (inactive) in the experiment on HOP-62; 68.4 µM (inactive) in the experiment with K562; 22.9 µM (inactive) in the experiment with KM-20L2. Further, the GI50 was 29.2 µM (inactive) in the experiment on LOX IMVI; 40.3 µM (inactive) with NCI-H23; 24.5 µM (inactive) in the experiment on NCI-H522; 57.1 µM (inactive) in the experiment on OVCAR-4; 15.5 µM (inactive) with RPMI-8226; 25.6 µM (inactive) in the experiment with SNB-75. For the same compound, the GI50 in the experiment with TK-10 is > 100 µM (inactive); in the experiment on U-251 it was 24.4 µM (inactive).

For the compound `Cc1nc2ccccc2n1Cc1ccc(NC(=S)Nc2ccccc2)cc1`, the GI50 in the experiment on A498 is 28.7 µM (inactive); with A549, 80 µM (inactive); in the experiment with BT-549 it was 61.1 µM (inactive); with HCC 2998, 92 µM (inactive); in the experiment with HOP-62, > 100 µM (inactive); in the experiment with K562, 33.4 µM (inactive). For the same compound, the GI50 in the experiment with LOX IMVI is 70.6 µM (inactive); in the experiment on NCI-H23, 83.9 µM (inactive); in the experiment on NCI-H522, 21.9 µM (inactive); in the experiment on NCI/ADR-RES, 72.3 µM (inactive); in the experiment on OVCAR-4, 28.6 µM (inactive); in the experiment on PC-3, 75.7 µM (inactive). For the same compound, the GI50 with RPMI-8226 was 50 µM (inactive); in the experiment on SNB-75 it was 63.8 µM (inactive); in the experiment on SR, 20.2 µM (inactive); in the experiment with SW-620, 45 µM (inactive); in the experiment on T47D, 18.6 µM (inactive); in the experiment with TK-10, > 100 µM (inactive). Moreover, the GI50 with U-251 is 82.6 µM (inactive).

With `O=c1cc2ccccc2nn1Cc1ccccc1Cl`, the GI50 was > 100 µM (inactive) in the experiment on A498; > 100 µM (inactive) in the experiment on A549; > 100 µM (inactive) in the experiment on HCC 2998; > 100 µM (inactive) with HOP-62; 85.3 µM (inactive) with K562; > 100 µM (inactive) with KM-20L2. The GI50 in the experiment on LOX IMVI was > 100 µM (inactive); in the experiment with NCI-H23, 88.9 µM (inactive); in the experiment on OVCAR-4 it was > 100 µM (inactive); in the experiment with RPMI-8226, 92.5 µM (inactive); in the experiment with SNB-75, 25.3 µM (inactive); in the experiment on SW-620, > 100 µM (inactive). Further, the GI50 in the experiment on TK-10 and in the experiment with U-251 was > 100 µM (inactive) each time.

For `CC(C)(C)OC(=O)CN1CCN(CC(=O)N2CCN(C(=O)OCc3ccccc3)CC2)CCN(CC(=O)OC(C)(C)C)CCN(CC(=O)N2CCN(C(=O)OCc3ccccc3)CC2)CC1`, the GI50 with A498 is 15.4 µM (inactive); in the experiment on A549, 3.27 µM (inactive); in the experiment with BT-549, 3.94 µM (inactive); in the experiment with HCC 2998, 1.69 µM (inactive); with HOP-62, 3.7 µM (inactive); in the experiment with K562, 0.989 µM (active). The GI50 in the experiment with LOX IMVI was 1.25 µM (inactive); in the experiment on NCI-H23 it was 2.6 µM (inactive); in the experiment on NCI-H522, 0.785 µM (active); in the experiment with NCI/ADR-RES, 14.3 µM (inactive); in the experiment on OVCAR-4, 2.73 µM (inactive); with PC-3, 2.51 µM (inactive). In addition, the concentration for 50% growth inhibition (GI50) with RPMI-8226 was 0.942 µM (active); in the experiment with SNB-75 it was 1.35 µM (inactive); in the experiment on SR it was 0.407 µM (active); with SW-620 it was 1.67 µM (inactive); in the experiment with T47D it was 3.12 µM (inactive); with TK-10, 5.92 µM (inactive). In addition, the GI50 with U-251 is 1.7 µM (inactive).

As for `CC(C)OC(=O)c1cc(NC(=O)C(C)(C)C)c(F)cc1Cl`, the GI50 in the experiment with A498, in the experiment on A549, in the experiment with HCC 2998, in the experiment on HOP-62, with K562 and with KM-20L2 was > 100 µM (inactive) in each case. In addition, the GI50 with LOX IMVI, in the experiment on NCI-H23, in the experiment on NCI-H522, in the experiment on OVCAR-4, with RPMI-8226 and in the experiment on SNB-75 was > 100 µM (inactive) throughout. The GI50 with SW-620, with TK-10 and with U-251 was > 100 µM (inactive) in each case.

Turning to `COC(=O)C1=C(OC(=O)/C(=C/c2ccccc2)c2ccc(Cl)cc2Cl)C(C(=O)OC)[C@@]2(O)[C@@H](C(=O)OC)[C@H](C)C[C@@H]1[C@@H]2C(=O)OC` (stereo partly specified), the GI50 in the experiment with A498, in the experiment on A549, with BT-549, in the experiment with HCC 2998, in the experiment on HOP-62 and in the experiment on K562 was > 100 µM (inactive) each time. The GI50 in the experiment with LOX IMVI, with NCI-H23, with NCI-H522, in the experiment with NCI/ADR-RES, with OVCAR-4 and in the experiment with PC-3 was > 100 µM (inactive) in each case. Moreover, the GI50 was > 100 µM (inactive) with RPMI-8226; 75.9 µM (inactive) in the experiment on SNB-75; > 100 µM (inactive) in the experiment with SR; > 100 µM (inactive) with SW-620; > 100 µM (inactive) in the experiment with T47D; > 100 µM (inactive) in the experiment on TK-10. Moreover, in the experiment on U-251, the GI50 was > 100 µM (inactive).

Regarding `O=C1COCCN1C(=O)c1ccccc1Cl`, the GI50 in the experiment with A498, in the experiment on A549, with BT-549, with HCC 2998, in the experiment on HOP-62 and in the experiment with K562 was > 100 µM (inactive) in each case. For the same compound, the GI50 with LOX IMVI, in the experiment with NCI-H23, in the experiment on NCI-H522, in the experiment on NCI/ADR-RES, in the experiment on OVCAR-4 and in the experiment on PC-3 was > 100 µM (inactive) in each case. The GI50 with RPMI-8226, with SNB-75, in the experiment on SR, with SW-620, with T47D and in the experiment on TK-10 was > 100 µM (inactive) each time. In addition, the GI50 in the experiment on U-251 is > 100 µM (inactive).

Consider `CO/N=C(\C(=O)O/C(=N/C1CCCCC1)NC1CCCCC1)c1csc(NC(c2ccccc2)(c2ccccc2)c2ccccc2)n1`, for which the GI50 in the experiment on A498, in the experiment with A549, in the experiment with BT-549, with HCC 2998, in the experiment on HOP-62 and with K562 was > 10 µM (inactive) in each case. For the same compound, the GI50 is 9.46 µM (inactive) in the experiment on LOX IMVI; > 10 µM (inactive) with NCI-H23; > 10 µM (inactive) in the experiment on NCI-H522; > 10 µM (inactive) with NCI/ADR-RES; > 10 µM (inactive) in the experiment with OVCAR-4; > 10 µM (inactive) in the experiment with PC-3. Also, the GI50 with RPMI-8226, in the experiment with SNB-75, in the experiment on SR, with SW-620, with T47D and in the experiment with TK-10 was > 10 µM (inactive) in each case. Further, the GI50 in the experiment with U-251 was > 10 µM (inactive).
